The subject of the test is SRS-A. Briefly: inhibition of SRS-A induced contraction of guinea pig ileum. It counts as cell-based. As to conditions: Cavia porcellus, 0.25 h; for inhibition at 5 µM: read-out: […], compound concentration 5 × 10^-6 M, SRS-A agonist 40 μg/ml, read-out: PERCENTAGE ANTAGONISM; for inhibition at 1 µM: read-out: […], compound concentration 1 × 10^-6 M, SRS-A agonist 40 μg/ml, read-out: PERCENTAGE ANTAGONISM
On the procedure:
The SRS-A antagonist activity of the compounds of this invention is measured by the ability of the active medicament to inhibit SRS-A induced contraction of guinea pig ileum. In this test system, sections of ileum are resected from guinea pigs and placed in 5 ml. tissue baths containing a modified Tyrode's solution. One end of the tissue is fixed to a glass tissue holder, the other is connected to a force-displacement transducer and the tissue is placed under a tension of 500 mg. Isometric tissue contractions are recorded on a six channel polygraph. Baths are constantly aerated with 95% O2 -5% CO2. After a 20 minute stabilization period a concentration of the appropriate agonist which provides a contraction height of 60-80% of the maximum obtainable to that agonist (as determined from full sequential concentration--response curves in separate experiments) is added to the tissue bath and the response recorded. The procedure is repeated until reproducible responses are obtained. For most agonists, two applications in rapid succession, followed 15 minutes later by a third, is sufficient to establish reproducibility. Experimental tissues are incubated with the selected concentration of the test compounds for 15 minutes. Experimental and control tissues are subjected to 5 bath changes during the incubation interval. Changes in bath fluid during the incubation period are helpful in insuring the reproducibility of tissue responses to the agonist. The same concentration of the agonist is reapplied in the presence of the test compound and the response registered and compared with controls. Percent inhibition produced by the test compound is calculated by substracting the mean percentage change in control tissue from the means percentage change in tissues exposed to the test compound. Additional compounds are then evaluated as long as the tissue remains reproducibly responsive to the agonist. Six tissues obtained from 6 animals are used simultaneously--3 controls and 3 experimental.
The compounds of this invention tested at concentrations of from 5×10^-5 M to 1×10^-6 M produce marked antagonism of partially purified slow reacting substance of anaphylaxis obtained from guinea pig lung. The agonist is employed at a concentration of 40 μg/ml. Representative of this effect, tabulated below are a number of the claimed compounds and percentage antagonism of SRS-A at various compound concentrations.

`O=S(=O)(Nc1cccc(Cl)c1)c1ccc2c(c1)CN(S(=O)(=O)NS(=O)(=O)N1CCc3ccc(S(=O)(=O)Nc4cccc(Cl)c4)cc3C1)CC2` [Compound 1, N,N'-bis[7-(3-chlorobenzeneaminosulfonyl)-1,2,3,4-tetrahydroisoquinolyl]disulfonylimide]: the inhibition at 5 µM stood at 67.5%.

On to `O=S(=O)(Nc1ccccc1)c1ccc2c(c1)CN(S(=O)(=O)NS(=O)(=O)N1CCc3ccc(S(=O)(=O)Nc4ccccc4)cc3C1)CC2` [Compound 2], for which the inhibition at 5 µM turned out to be 42.3%.

In the case of `O=S(=O)(Nc1ccccc1Cl)c1ccc2c(c1)CN(S(=O)(=O)NS(=O)(=O)N1CCc3ccc(S(=O)(=O)Nc4ccccc4Cl)cc3C1)CC2` [Compound 3], the inhibition at 5 µM was found to be 24.8%.

Regarding `O=S(=O)(Nc1ccc(Cl)cc1)c1ccc2c(c1)CN(S(=O)(=O)NS(=O)(=O)N1CCc3ccc(S(=O)(=O)Nc4ccc(Cl)cc4)cc3C1)CC2` [Compound 4], the inhibition at 5 µM came to 51.2%.

Consider `O=S(=O)(Nc1cccc(Br)c1)c1ccc2c(c1)CN(S(=O)(=O)NS(=O)(=O)N1CCc3ccc(S(=O)(=O)Nc4cccc(Br)c4)cc3C1)CC2` [Compound 5], for which the inhibition at 1 µM is 54% and the inhibition at 5 µM came to 68%.

For the compound `O=S(=O)(Nc1ccc(Br)cc1)c1ccc2c(c1)CN(S(=O)(=O)NS(=O)(=O)N1CCc3ccc(S(=O)(=O)Nc4ccc(Br)cc4)cc3C1)CC2` [Compound 6], the inhibition at 5 µM worked out at 42.2%.

On to `O=S(=O)(Nc1cccc(C(F)(F)F)c1)c1ccc2c(c1)CN(S(=O)(=O)NS(=O)(=O)N1CCc3ccc(S(=O)(=O)Nc4cccc(C(F)(F)F)c4)cc3C1)CC2` [Compound 7], for which the inhibition at 5 µM amounted to 65%.

In the case of `O=S(=O)(Nc1ccc(C(F)(F)F)cc1)c1ccc2c(c1)CN(S(=O)(=O)NS(=O)(=O)N1CCc3ccc(S(=O)(=O)Nc4ccc(C(F)(F)F)cc4)cc3C1)CC2` [Compound 8], the inhibition at 1 µM worked out at 49% and the inhibition at 5 µM turned out to be 57%.

`O=[N+]([O-])c1cccc(NS(=O)(=O)c2ccc3c(c2)CN(S(=O)(=O)NS(=O)(=O)N2CCc4ccc(S(=O)(=O)Nc5cccc([N+](=O)[O-])c5)cc4C2)CC3)c1` [Compound 9]: the inhibition at 5 µM came out at 36%.

In the case of `O=S(=O)(Nc1ccc(Cl)c(Cl)c1)c1ccc2c(c1)CN(S(=O)(=O)NS(=O)(=O)N1CCc3ccc(S(=O)(=O)Nc4ccc(Cl)c(Cl)c4)cc3C1)CC2` [Compound 11], the inhibition at 1 µM worked out at 49% and the inhibition at 5 µM is 56%.

Take `O=S(=O)(Nc1ccc(Cl)c(C(F)(F)F)c1)c1ccc2c(c1)CN(S(=O)(=O)NS(=O)(=O)N1CCc3ccc(S(=O)(=O)Nc4ccc(Cl)c(C(F)(F)F)c4)cc3C1)CC2` [Compound 12]: the inhibition at 1 µM was 41% and the inhibition at 5 µM worked out at 91.5%.

For the compound `Cc1ccc(NS(=O)(=O)c2ccc3c(c2)CN(S(=O)(=O)NS(=O)(=O)N2CCc4ccc(S(=O)(=O)Nc5ccc(C)c(C)c5)cc4C2)CC3)cc1C` [Compound 13], the inhibition at 5 µM came to 62%.

For `Cc1ccc(NS(=O)(=O)c2ccc3c(c2)CN(S(=O)(=O)NS(=O)(=O)N2CCc4ccc(S(=O)(=O)Nc5ccc(C)c(Cl)c5)cc4C2)CC3)cc1Cl` [Compound 14], the inhibition at 5 µM stood at 84%.

As for `CN(c1ccc(Cl)cc1)S(=O)(=O)c1ccc2c(c1)CN(S(=O)(=O)NS(=O)(=O)N1CCc3ccc(S(=O)(=O)N(C)c4ccc(Cl)cc4)cc3C1)CC2` [Compound 15], the inhibition at 5 µM came to 57.3%.

In the case of `O=S(=O)(Nc1cccc(Cl)c1)c1c(Cl)ccc2c1CN(S(=O)(=O)NS(=O)(=O)N1CCc3ccc(Cl)c(S(=O)(=O)Nc4cccc(Cl)c4)c3C1)CC2` [Compound 23, N,N'-Bis[7-Chloro-8-(3-Chlorobenzeneaminosulfonyl)-1,2,3,4-Tetrahydroisoquinolyl]disulfonylimide], the inhibition at 5 µM is 48%.

Turning to `O=S(=O)(Nc1cccc(Cl)c1)c1ccc(Cl)c2c1CCN(S(=O)(=O)NS(=O)(=O)N1CCc3c(S(=O)(=O)Nc4cccc(Cl)c4)ccc(Cl)c3C1)C2` [Compound 30, N,N'-bis[8-chloro-5-(3-chlorobenzeneaminosulfonyl)-1,2,3,4-tetrahydroisoquinolyl]disulfonylimide], the inhibition at 5 µM came out at 63%.

These data come from patent publication US4315935A, “N,N'-Bis[substituted-1,2,3,4-tetrahydroisoquinolinolyl]disulfonylimides and antiallergic compositions and method of use” (SmithKline Corporation, priority 1980, dated 1982).
